Assay results as given in EPA's ToxRefDB 2.
Blank lines part the entries; values can stand above or below the compound they belong to.

Experiments:
rat [1] = details: Other (NonGuideline or Guideline Not Listed); sprague dawley; Oral; Gavage/Intubation; dose end: 1 day; group: cannot be grouped; systemic / in life observation / clinical signs / salivation + systemic / in life observation / clinical signs / urogenital staining
dog [2] = details: Subchronic oral toxicity in nonrodent, beagle, Gavage/Intubation, dose end: 14 week, group: systemic
rat [3] = details: Subchronic oral toxicity in rodents, wistar, Feed, dose end: 98 day, group: systemic
rat [4] = details: Chronic toxicity, sprague dawley, Oral, Gavage/Intubation, dose end: 6 month, group: systemic
rabbit [5] = details: Prenatal developmental toxicity study, new zealand white, Oral, Gavage/Intubation, dose end: 19 GD
rat [6] = details: Fertility (Segment I); sprague dawley; Oral; Gavage/Intubation; dose end: 7 GD; group: parental; systemic / in life observation / food consumption / food consumption + systemic / organ weight / uterus / nos
dog [7] = details: Subchronic oral toxicity in nonrodent, beagle, Gavage/Intubation, dose end: 3 month, group: systemic, systemic / hematology / blood clotting / blood clotting - activated partial thromboplastin time + systemic / hematology / blood clotting / …
rat [8] = details: Sub-acute repeat dose toxicity; sprague dawley; Oral; Gavage/Intubation; dose end: 4 week; group: systemic; systemic / hematology / blood clotting / blood clotting - activated partial thromboplastin time + systemic / hematology / blood clotting / …
rat [9] = details: Prenatal developmental toxicity study; sprague dawley; Oral; Gavage/Intubation; dose end: 17 GD; group: maternal; systemic / in life observation / body weight / body weight gain
rabbit [10] = details: Prenatal developmental toxicity study, new zealand white, Oral, Gavage/Intubation, dose end: 19 GD; remark: listed apart in the source
rat [11] = details: Prenatal developmental toxicity study, sprague dawley, Oral, Gavage/Intubation, dose end: 17 GD
dog [12] = details: Sub-acute repeat dose toxicity; beagle; Oral; Gavage/Intubation; dose end: 4 week; group: systemic; systemic / hematology / blood clotting / blood clotting - prothrombin time + systemic / hematology / blood clotting / blood clotting - …
[13] = systemic / clinical chemistry / chloride / chloride + systemic / clinical chemistry / phosphorus / phosphorus + systemic / clinical …
[14] = systemic / clinical chemistry / phosphorus / phosphorus + systemic / pathology microscopic / bone / [other]
[15] = systemic / in life observation / body weight / body weight gain + systemic / in life observation / clinical signs / wetness + systemic / …
[16] = systemic / hematology / blood clotting / blood clotting - activated partial thromboplastin time + systemic / hematology / blood clotting / …
[17] = systemic / in life observation / body weight / body weight gain + systemic / organ weight / pituitary gland / relative to body weight + …
[18] = group: developmental, developmental / developmental malformation / general / [other] + systemic / in life observation / body weight / fetal weight
[19] = group: maternal, systemic / in life observation / body weight / body weight gain + systemic / in life observation / clinical signs / alopecia + systemic / in…
[20] = group: developmental, systemic / in life observation / body weight / fetal weight
[21] = group: maternal, systemic / in life observation / body weight / body weight gain + systemic / in life observation / food consumption / food consumption
[22] = group: maternal, systemic / in life observation / body weight / body weight gain + systemic / in life observation / food consumption / food consumption + …
[23] = group: developmental, developmental / developmental malformation / bone / supernumerary

LEL (rat [1]): 2000 mg/kg/day
NEL (rat [1]): < 2000 mg/kg/day
Structure (SMILES): Cc1ncc([C@@H](CCCCCCc2ccc3c(n2)NCCC3)CC(=O)O)cn1
LOAEL (rat [1]): > 2000 mg/kg/day
NOAEL (rat [1]): ≥ 2000 mg/kg/day
LOAEL (dog [2]; [13]): > 45 mg/kg/day
NOAEL (dog [2]; [13]): ≥ 45 mg/kg/day
LEL (dog [2]; [14]): 5 mg/kg/day
NEL (dog [2]; [14]): < 5 mg/kg/day

Structure (SMILES): Oc1cc(Cl)c(Cl)cc1Cl [2,4,5-Trichlorophenol]
LOAEL (rat [3]; [15]): > 1000 mg/kg/day
NEL (rat [3]; [15]): 100 mg/kg/day
NOAEL (rat [3]; [15]): ≥ 1000 mg/kg/day
LEL (rat [3]; systemic / in life observation / clinical signs / wetness + systemic / pathology microscopic / kidney / degeneration + systemic / pathology …): 300 mg/kg/day

Structure (SMILES): O=C([O-])c1ccc2c(c1)nc(C(=O)NC1CCN(C3CC3)CC1)n2Cc1cc(-c2ccc(Cl)s2)on1.[Na+] [AVE3247]
LEL (rat [4]; [16]): 200 mg/kg/day
NEL (rat [4]; [16]): < 200 mg/kg/day
LOAEL (rat [4]; [17]): 2000 mg/kg/day
NOAEL (rat [4]; [17]): 500 mg/kg/day
LEL (rabbit [5]; [18]): 2000 mg/kg/day
LOAEL (rabbit [5]; [18]): > 2000 mg/kg/day
NEL (rabbit [5]; [18]): 1000 mg/kg/day
NOAEL (rabbit [5]; [18]): ≥ 2000 mg/kg/day
LEL (rabbit [5]; [19]): 500 mg/kg/day
LOAEL (rabbit [5]; [19]): 1000 mg/kg/day
NEL (rabbit [5]; [19]): < 500 mg/kg/day
NOAEL (rabbit [5]; [19]): 500 mg/kg/day
LEL (rat [6]): 2000 mg/kg/day
LOAEL (rat [6]): > 2000 mg/kg/day
NEL (rat [6]): 500 mg/kg/day
NOAEL (rat [6]): ≥ 2000 mg/kg/day
LEL (dog [7]): 10 mg/kg/day
LOAEL (dog [7]): > 80 mg/kg/day
NEL (dog [7]): < 10 mg/kg/day
NOAEL (dog [7]): ≥ 80 mg/kg/day
LEL (rat [8]): 200 mg/kg/day
LOAEL (rat [8]): > 2000 mg/kg/day
NEL (rat [8]): < 200 mg/kg/day
NOAEL (rat [8]): ≥ 2000 mg/kg/day
LEL (rat [9]): 2000 mg/kg/day
LOAEL (rat [9]): > 2000 mg/kg/day
NEL (rat [9]): 1000 mg/kg/day
NOAEL (rat [9]): ≥ 2000 mg/kg/day
LEL (rabbit [10]; [20]): 2000 mg/kg/day
LOAEL (rabbit [10]; [20]): 2000 mg/kg/day
NEL (rabbit [10]; [20]): 500 mg/kg/day
NOAEL (rabbit [10]; [20]): 500 mg/kg/day
LEL (rabbit [10]; [21]): 500 mg/kg/day
LOAEL (rabbit [10]; [21]): 500 mg/kg/day
NEL (rabbit [10]; [22]): 200 mg/kg/day
NOAEL (rabbit [10]; [22]): 200 mg/kg/day
LEL (rat [11]; [23]): 500 mg/kg/day
LOAEL (rat [11]; [23]): 500 mg/kg/day
NEL (rat [11]; [23]): 200 mg/kg/day
NOAEL (rat [11]; [23]): 200 mg/kg/day
LEL (rat [11]; [21]): 2000 mg/kg/day
LOAEL (rat [11]; [21]): 2000 mg/kg/day
NEL (rat [11]; [21]): 500 mg/kg/day
NOAEL (rat [11]; [21]): 500 mg/kg/day
LEL (dog [12]): 10 mg/kg/day
LOAEL (dog [12]): > 100 mg/kg/day
NEL (dog [12]): < 10 mg/kg/day
NOAEL (dog [12]): ≥ 100 mg/kg/day
